Positions of bridges follow the written chain, without caps; N, C: chain ends. Residues, ends and D or L forms follow the SMILES beside them. *: point of attachment. Biotin = O=C1N[C@H]2[C@H](CS[C@H]2CCCCC(=O)*)N1
What was measured:
rCAT2 = assay: Enzymatic activity of rCAT2, Amplex Red catalase assay; type: biochemical, Arabidopsis thaliana; conditions: 100 nM, Amplex Red catalase assay kit; three independent experiments, P < 0.01
Procedure: Enzymatic activity of CAT isozymes and total CAT activities of protein extracted from WT and atpnp-a or cat2-2 mutant lines, when indicated sprayed with 1 nM pAtPNP-A or pScr 20 min before harvesting, were determined zymographically and spectrophotometrically, as described in[56]. Relative quantification of intensity of bands corresponding to different CAT isoforms was performed with ImageJ version 1.48 (https://imagej.nih.gov/ij/). Enzymatic activity of the rCAT2 in the presence of absence of 100 nM rAtPNP-A, pAtPNP-A or pScr were determined with the use of Amplex Red catalase assay kit (Invitrogen) according to the manufacturer’s instructions.
Figure 3 AtPNP-A directly interacts with CAT2 to modulate its enzymatic activity in vitro. (a) Zymogram depicting changes in the enzymatic activity of CAT isoforms extracted from wild type (WT) or cat2-2 knockout mutant seedlings in response to 1 nM pAtPNP-A or pScr. Densitometric semi-quantification of bands corresponding to CAT2, normalized to the loading control (dark-coloured band on zymogram) for WT samples treated with 1 nM pAtPNP-A or pScr (mean ± SD, Student’s t-test, n = 3, P < 0.05). […] (b) Total CAT activity in protein extracted from WT seedlings assayed with Amplex Red catalase assay kit in the presence of 1 nM pAtPNP-A, rAtPNP-A, or pScr. […] (c) Enzymatic activity of rCAT2 in the presence of 100 nM pAtPNP-A, rAtPNP-A, or pScr.

FED A, ferredoxin 2 = assay: Yeast two-hybrid (Y2H) screen; type: binding, A. thaliana; conditions: bait AtPNP-A amino acids 26–130, prey At1g60950.1
Procedure: (§1) The Y2H screen using AtPNP-A as bait was carried out by Dualsystems Biotech AG (Zurich, Switzerland). The bait construct for the screening was made by subcloning the cDNA fragment encoding exported portion of AtPNP-A (amino acids 26 to 130) (Fig. 1a) into the pLexA-DIR vector (Dualsystems Biotech AG). The bait construct was transformed into the strain NMY32 (MATa his3Δ200 trp1-901 leu2-3,112 (lexAop)8-ADE2 LYS2::(lexAop)4-HIS3 URA3::(lexAop)8-lacZ GAL4) using standard procedures. Correct expression of the bait was verified by western blotting of cell extracts using a mouse monoclonal antibody directed against the LexA domain (Dualsystems Biotech AG). The absence of self-activation was verified by co-transformation of the bait together with a control prey and selection on minimal medium lacking tryptophan, leucine, and histidine (selective medium). For the Y2H screen, the bait was co-transformed together with a normalized A. thaliana universal P02403 cDNA library (Dualsystems Biotech AG) into NMY32. 3.1 × 10^6 transformants were screened, yielding 96 transformants that grew on selective medium. […] Library plasmids were isolated from positive clones. The identity of positive interactants was determined by sequencing. DNA sequences translated in all three reading frames and searching against the SwissProt database using the BLASTX algorithm (https://blast.ncbi.nlm.nih.gov).

[1] = tested on: Basic-leucine zipper (bZIP) TF family protein; assay: Yeast two-hybrid (Y2H) screen; type: binding, A. thaliana; conditions: bait AtPNP-A amino acids 26–130, prey At2g31370.1
Procedure: as §1

[2] = tested on: ER, enhanced of rudimentary homologue, ATER; assay: Yeast two-hybrid (Y2H) screen; type: binding, A. thaliana; conditions: bait AtPNP-A amino acids 26–130, prey At5g10810.1
Procedure: as §1

CAT2, catalase 2 = assay: Yeast two-hybrid (Y2H) screen; type: binding, A. thaliana; conditions: bait AtPNP-A amino acids 26–130, prey At4g35090.1
Procedure: as §1

[3] = tested on: MAC5S, MOS4-associated complex subunit 5C; assay: Yeast two-hybrid (Y2H) screen; type: binding, A. thaliana; conditions: bait AtPNP-A amino acids 26–130, prey At5g07060.1
Procedure: as §1

COL1, constans-like 1 = assay: Yeast two-hybrid (Y2H) screen; type: binding, A. thaliana; conditions: bait AtPNP-A amino acids 26–130, prey At5g15850.1
Procedure: as §1

stomata = conditions: cited from earlier work
Source text: A PNP_CAT interaction in plant responses to infecting pathogens is not surprising. CATs commonly function to down-regulate ROS during ABA-induced stomatal closure, and ABA-induced stomatal closure can be inhibited by removal of H2O2 via CAT2[73],[74]. […] Therefore, it is tempting to speculate that AtPNP-A modulates the effect of ABA on stomatal aperture through the interaction w ...

| In vitro enzymatic activity of rCAT2 (rCAT2) | Compound | Strength of binding (FED A, ferredoxin 2) | Strength of binding [1] | Strength of binding [2] | Strength of binding (CAT2, catalase 2) | Strength of binding [3] | Strength of binding (COL1, constans-like 1) | Effect on ABA-induced stomatal closure (stomata) |
| --- | --- | --- | --- | --- | --- | --- | --- | --- |
| significantly enhanced | CC(C)C[C@@H]1NC(=O)[C@H](CC(N)=O)NC(=O)[C@H](CC(N)=O)NC(=O)[C@H](CCCCN)NC(=O)[C@H](C(C)C)NC(=O)CNC(=O)[C@H](C(C)C)NC(=O)[C@H](C(C)C)NC(=O)[C@H](CC(C)C)NC(=O)[C@H]([C@@H](C)O)NC(=O)[C@H](CCC(=O)O)NC(=O)[C@H](CCCNC(=N)N)NC(=O)[C@H](CCC(N)=O)NC(=O)[C@H]([C@@H](C)O)NC(=O)CNC(=O)[C@H](Cc2ccc(O)cc2)NC(=O)[C@@H](NC(=O)[C@H](C)NC(=O)[C@H](CO)NC(=O)[C@H](CCCNC(=N)N)NC(=O)[C@@H](NC(=O)[C@H](Cc2ccc(O)cc2)NC(=O)[C@@H]2CCCN2)[C@@H](C)O)CSSC[C@@H](C(=O)NCC(=O)N[C@@H](CCCNC(=N)N)C(=O)N[C@@H](CCCNC(=N)N)C(=O)N[C@@H](Cc2ccc(O)cc2)C(=O)N[C@@H](CCCNC(=N)N)C(=O)N[C@H](C(=O)N[C@@H](CCCNC(=N)N)C(=O)N[C@@H](CCCCNC(=O)CCCC[C@@H]2SC[C@@H]3NC(=O)N[C@@H]32)C(=O)O)C(C)C)NC(=O)[C@H](C)NC(=O)[C@H](CCCNC(=N)N)NC(=O)CNC(=O)[C@H](CC(N)=O)NC(=O)[C@H](CCC(N)=O)NC(=O)[C@H](Cc2c[nH]c3ccccc23)NC1=O [pAtPNP-A] (H-PYTRSACYGTQRETLVVGVKNNLWQNGRACGRRYRVRK(Biotin)-OH; disulfide 7-30; N-terminus and C-terminus assumed) |  |  |  |  |  |  |  |
|  | AtPNP-A: An A. thaliana PNP, termed AtPNP-A (At2g18660; Q9ZV52) | Weak | Weak | Weak | Weak | Strong | Weak | significantly delay and reduce the extent of ABA-induced stomatal closure |
